According to US10539552B2, “Compositions and methods for measuring cellular mechanical stress” (The Regents of the University of California, priority 2014, dated 2020):
“Also recorded” adds a separate entry of the source.

How the values were obtained:
[1] = target: T1, CaMKII (Rattus norvegicus, UniProt P11275); assay: In vitro CaMKII activity measurement with Camui FRET sensor in HEK cell lysates; assay type: biochemical
T1 construct: Camui comprises of full length CaMKII with a CFP/YFP pair on either end of the kinase; expressed in transfected cells; host or cells: HEK293 (lysate, cytosolic fraction)
Procedure: (§1) In Vitro CaMKII activity measurements with Camui sensor. Design and synthesis of the wild-type, phosphorylation resistant, and oxidation resistant Camui constructs were previously described. HEK293 cells were cultured in Eagle's medium plus 5% fetal bovine serum and penicillin/streptomycin for 24 hour and then transfected with plasmids encoding Camui (or a mutant isoform) using a mammalian transfection kit (Stratagene). After an additional 24 hour, Camui expression was checked by fluorescence microscopy. HEK cells expressing Camui were lysed in Ca^2+-free buffer containing 50 mM Tris-HCl buffer (pH 7.5), 5 mM MgCl2, and protease inhibitors. Fluorescence measurements were performed using a MS SpectraMax plate reading spectrophotometer (Molecular Devices) with excitation and emission slits set to 4 nm, excitation wavelength set to 440 nm, emission wavelengths set to 477 nm (FCFP) and 527 nm (FYFP), respectively. The cytosolic fraction of the transfected HEK cells […] Camui fluorescence was measured in the presence of 10 μM CaM and 200 μM Ca^2+. EGTA 1 mM was used to chelate Ca^2+ and autonomous CaMKII activity was measured in the presence of 1 mM EGTA and either 50 μM or 500 μM SNAP.
(§2) CaMKII activity was known to be increased by auto-phosphorylation and by oxidation. Here we measure the effect of nitric oxide (NO) on CaMKII activity using the FRET-based biosensor Camui which detects conformational changes in CaMKII during activation. To determine whether NO can activate CaMKII, we expressed the CaMKII activity sensor Camui in HEK cells and measured autonomous activation induced by the NO donor SNAP. Camui comprises of full length CaMKII with a CFP/YFP pair on either end of the kinase, which produce substantial FRET in the closed (autoinhibited) state. If autoinhibition is disrupted, either directly by Ca^2+/CaM binding or autonomously by post-translational modification of the kinase, FRET is reduced, resulting in an increase in FCFP/FYFP. […] CaMKII is known to be autonomously activated by T286 phosphorylation and by CM280/281 oxidation. To test whether one or both of these mechanisms were responsible for SNAP-induced CaMKII activation, we repeated the HEK cell experiment using mutant versions of Camui lacking either the phosphorylation (T286) or oxidation (CM280/281) target sites. In both cases, SNAP dependent activation of CaMKII was preserved.

[2] = test system: CaMKII; assay: as above; assay type: biochemical; conditions: Camui lacking phosphorylation (T286) or oxidation (CM280/281) sites
Procedure: as §1, §2

[3] = test system: mouse ventricular myocytes (wild-type); assay: Cell-in-Gel confocal Ca^2+ spark imaging during myocyte contraction under afterload (wild-type); assay type: cell-based; conditions: wild-type myocytes contracting in Gel7.5%, paced 0.5 Hz, L-NAME 10 mM, L-NPA 5 μM, L-Nio 10 μM, Gp91ds 1 μM, blebbistatin 10 μM
Procedure: Cell isolation. Wild-type and transgenic mice, 8 weeks old male, were purchased from Jackson Laboratories (USA): C57BL/6J (wild-type), B6.129S4-Nos1tm1Plh/J (NOS1−/−), B6.129P2-Nos3tm1Unca/J (NOS3−/−). Transgenic mouse with R92Q mutation in cardiac troponin T was created in Tardiff s lab (22) and bred in Chen-Izu's lab. A standard enzymatic technique (40) was used to isolate the ventricular myocytes using Worthington collagenase type II and Sigma protease type XIV. All experiments were conducted at 21-22° C.
Cell-in-Gel system. Elastic gel matrix was made of a poly vinyl alcohol (PVA) hydrogel system comprised of underivatized PVA (98 KD) and a tetravalent boronate-PEG crosslinker (12). Freshly isolated myocytes were first suspended in 7% PVA solution; then 7.5% crosslinker solution was added in equal volume (Gel7.5%). Upon mixing, the boronate group crosslinks PVA hydrogel, embedding the cell in the 3D gel matrix. The boronate group also crosslinks the cis-diols of the cell-surface glycans to PVA, thereby tethering the cell surface to the gel. We used Gel7.5% for all the experiments in this study except one group in FIG. 11G using Gel5%.
Confocal imaging of Ca^2+ signals. Myocytes were loaded with Ca^2+ indicator, Fluo-4, and then embedded in the gel. Confocal imaging was performed using standard method (41).
For confocal imaging of the Ca^2+ signals, freshly isolated myocytes were continuously perfused in Tyrode solution containing (in mM): 150 NaCl, 5.4 KCl, 1.2MgCl2, 1 CaCl2, at pH 7.4, loaded with Ca^2+ indicator Fluo-4, and then embedded in the PVA gel. The cell was paced at 0.5 Hz frequency by electrical field stimulation using short (4 ms) depolarization pulses with bipolar switching (switch positive and negative polarity in consecutive stimulus pulses). The platinum electrodes were used in conjunction with continues perfusion of fresh Tyrode solution to maintain constant bath condition (pH, glucose, ionic composition, temperature etc.).
Confocal images were obtained using an Olympus FluoView 1000 Confocal Microscope (inverted configuration) with a water immersion fluorescence objective UPlanSApo 60X, NA1.2, corrected for the thickness of the No. 1 glass coverslip that is used at the bottom of the perfusion chamber. Fluo-4 was excited with 488 nm laser beam (laser power set to 5%), and the emitted fluorescence light was passed through a bandpass filter BA505-605 and collected with a PMT. The PMT voltage, gain, and offset were set to avoid any saturation and to obtain high fidelity images. The line-scan images were obtained using the highest scan speed of 2 μs/pixel.
Ca^2+ sparks were detected automatically using a homemade program based on our spark identification algorithm and adapted for x-t linescans. As in our 2-D program, sparks are identified in two stages. In the first stage, putative sparks are detected based on Cheng et al.'s description and bright but spatially small events were eliminated using the ‘live-or-die’ algorithm described in our previous publication. In the second stage, the putative sparks were classified as sparks or noise based on the statistical sieve as described previously in our publication. This analysis software provides automated and objective (agnostic via statistical sieving) detection and classification of the Ca^2+ signaling events. […]

[4] = test system: mouse ventricular myocytes; assay: Systolic Ca^2+ transient and myocyte contraction in-Gel (Fluo-4 confocal / Fura-2 ratio, sarcomere detection); assay type: cell-based; conditions: for peak systolic Ca^2+ transient (Fura-2 ratio), inhibitor effect: L-NPA 5 μM; for systolic Ca^2+ transient (Fluo-4 confocal): compared to load-free contraction, blebbistatin 10 μM in gel
Description: Mechanical load effects on the myocyte contraction and systolic Ca^2+ transient. To establish that the diastolic spontaneous Ca^2+ sparks are indeed caused by the mechanical load, we examined the Ca^2+ spark rate in the myocytes contracting under different mechanical loads as shown in FIG. 11G. We also examined the systolic Ca^2+ transient and the myocyte contraction under these conditions of varying loads.
Whole cell Ca^2+ transient measurement using Fura-2 ratiometric method. In order to more precisely measure the whole cell Ca^2+ concentration, we used Fura-2 ratiometric method (40) rather than Fluo-4 single wavelength measurement. Fura-2 loading was done by incubating the cells with 2.5 μM Fura-2/AM and 0.75 μM Pluronic-127 (in 20% DMSO) at room temperature for 30 minutes. After washing out Fura-2/AM, the cells were incubated for an additional 45 minutes, and then used for experiment within 2 hours. An IonOptix system (IonOptix Inc., USA) with a Hyperswitch and mounted on the Olympus X71 inverted microscope with a water immersion fluorescence objective UPlanSPao 40×, 1.15 NA, corrected for the thickness of the No. 1 glass coverslip. The excitation light was generated using a high intensity ARC lamp (Cairn). The Hyperswitch (galvanometer based switching between […] and 380 nm at 500 Hz frequency, using a 340/370d/380 filter cube) was used to deliver dual excitation beams at 340 nm and 380 nm, switching between the two wavelengths. Fura-2 fluorescence emission light was passed through a bandpass filter D510/40m, and then collected in a photomultiplier tube (PMT). The gain of the PMT was set to avoid any saturation and to obtain high fidelity photon count.
The Fura-2 fluorescence emission (F) from the excitation at 340 nm and 380 nm were recorded from the cell. The background fluorescence (BG) at 340 nm and 380 nm wavelengths were obtained in the solution and in the gel without cell. The BG signals were found slightly higher in the gel than in solution, but both were substantially lower than the Fura-2 fluorescence emissions from the cell. The Fura-2 fluorescence ratio, RFura, was calculated after background subtraction.
For measuring the systolic Ca^2+ transient, the cell was first paced to reach steady-state (>2 minutes), and then the Fura-2 fluorescence was recorded for at least 10 beats during steady-state. For SR content measurement, after the cell reaching steady-state the field stimulation was stopped to keep the cell at resting state for 15 seconds; then caffeine at high concentration (20 mM) was applied to rapidly deplete the SR load (FIG. 14A,B). The rapidity of the SR Ca^2+ release was accessed by the rising velocity of the caffeine-induced Ca^2+ transient, and the peak Ca^2+ value was used as an index to measure the SR load. […] Since RyR sensitivity to intra-SR [Ca^2+] is steep, we also acknowledge that small changes in SR Ca^2+ that we could not detect could have functional impact.
Myocyte contraction measurement. Contraction measurement using Fluo-4 confocal image was determined from the confocal x-t linescan by the difference in the positions of the left and right boundaries demarcated by the bright fluo-4 signal and the dimmer signal from the PVA gel or the bathing solution. Myocyte length was calculated by converting the fluorescence signal along each x into a binary vector. Fluorescence values above background plus a threshold were considered 1, otherwise 0. The numbers of “1” pixels was then multiplied by a scaling factor (determined by using a Ronchi ruling with 2.5 spacing) to get the cell shortening in microns. The threshold was set to half of the maximum calcium fluorescence.
Contraction measurement using IonOptix system (IonOptix Co., USA) with sarcomere detection was done by using a high speed camera (Myocam-S, 240 up to 1000 frame/s) the record the sarcomere movement during contraction. […]

[5] = myocytes contracting in-Gel, L-Nio 10 μM

T1 sequence (P11275 whole entry): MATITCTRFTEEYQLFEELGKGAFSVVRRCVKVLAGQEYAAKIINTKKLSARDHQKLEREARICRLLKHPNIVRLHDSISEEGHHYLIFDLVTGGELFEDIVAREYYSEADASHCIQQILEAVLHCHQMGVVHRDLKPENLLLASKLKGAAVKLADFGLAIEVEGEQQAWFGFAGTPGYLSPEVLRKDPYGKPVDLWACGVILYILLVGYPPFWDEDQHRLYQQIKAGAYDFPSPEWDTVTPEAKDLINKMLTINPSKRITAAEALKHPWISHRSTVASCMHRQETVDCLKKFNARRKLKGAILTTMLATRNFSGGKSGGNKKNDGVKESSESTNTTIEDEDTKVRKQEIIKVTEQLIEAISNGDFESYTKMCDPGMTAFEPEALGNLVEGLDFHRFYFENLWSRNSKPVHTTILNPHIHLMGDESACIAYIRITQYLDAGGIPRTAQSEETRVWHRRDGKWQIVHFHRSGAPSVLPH

SMILES: CC(=O)N[C@@H](C(=O)O)C(C)(C)SN=O (racemic) [SNAP]
- autonomous CaMKII activation (FCFP/FYFP) ([1]; 50 μM SNAP with 1 mM EGTA, compared to EGTA only): no effect
- autonomous CaMKII activation (FCFP/FYFP) ([1]; 500 μM SNAP with 1 mM EGTA): significant increase in CaMKII activation; also recorded: Autonomous CaMKII activation was seen
- CaMKII activation relative to Ca^2+/CaM dependent activity ([1]; 500 μM SNAP with EGTA): about 50 % of Ca^2+/CaM dependent activity
- SNAP dependent CaMKII activation in mutant Camui [2]: preserved; also recorded: not secondary to either phosphorylation (T286A) or oxidation (CM/VV)

SMILES: COC(=O)[C@@H](N)CCCNC(=N)N[N+](=O)[O-] [L-NAME]
- afterload-induced diastolic spontaneous Ca^2+ sparks, drug effect [3]: effectively suppressed Ca^2+ sparks

SMILES: CCCN=C(N)NCCC[C@H](N)C(=O)O.Cl [L-NPA, Nw-Propyl-L-arginine hydrochloride]
- afterload-induced diastolic spontaneous Ca^2+ sparks, drug effect [3]: effectively suppressed Ca^2+ sparks
- peak systolic Ca^2+ transient (Fura-2 ratio), inhibitor effect [4, 5]: reduced the Ca^2+ transient

SMILES: CC(N)=NCCC[C@H](N)C(=O)O.Cl.Cl [L-Nio, L-Nio-dihydrochloride]
- afterload-induced diastolic spontaneous Ca^2+ sparks, drug effect [3]: failed to suppress Ca^2+ sparks
- peak systolic Ca^2+ transient (Fura-2 ratio), inhibitor effect [4, 5]: reduced the Ca^2+ transient
- Tau of the Ca^2+ transient decline [4, 5]: slowed the speed of Ca^2+ transient decline

SMILES: Cc1ccc2c(c1)C(=O)C1(O)CCN(c3ccccc3)C1=N2 (stereo not drawn) [blebbistatin]
- afterload-induced diastolic spontaneous Ca^2+ sparks, drug effect [3]: restored the Ca^2+ transient and spark rate to the load-free condition
- afterload-induced diastolic spontaneous Ca^2+ sparks, drug effect ([3]; listed as Blebbistatin): normalization of Ca^2+ spark rate
- systolic Ca^2+ transient (Fluo-4 confocal) [4]: restored the Ca^2+ transient and spark rate to the load-free condition
- systolic Ca^2+ transient (Fluo-4 confocal) ([4]; listed as Blebbistatin): restored the Ca^2+ transient to the load-free condition
- myocyte contraction amplitude (fractional shortening) ([4]; in gel versus load-free, blebbistatin 10 μM): decoupled cell contraction from Ca^2+ signaling
